The subject of this assay is CD4 T cells from healthy donors. The experiment in a line: HLA restriction and FVIII specificity IFN-γ ELISPOT of T cell lines raised with the pool of 18 peptides (four donors). The assay is classed as cell-based, human. More on the design: key to Protein specificty: +: positive T cell responses to both the full-length FVIII protein (protein specificity). The note with it: for intensity (%): four donors, 87 specific T cell lines in total; for Responding donors (%): four healthy donors, T cell lines amplified with pool of 18 FVIII peptides; for HLA restriction (%) DP / HLA restriction (%) DR: percentage of restricted T cell lines, inhibition higher than 50% of ELISPOT count; for HLA restriction (%) DP: anti-HLA-DP (B7/21) 10 μg/ml; for HLA restriction (%) DR: anti-HLA-DR (L243) 10 μg/ml; for Protein specificty: recognition of rFVIII loaded on autologous DCs by peptide-specific T cell lines. As to the method: T cells were incubated with autologous DCs alone (control) or with DCs incubated with rFVIII (0.2 µM), ovalbumin (3 µM), and KLH (1 µM) or PBMCs for FVIII peptides (10 µg/ml) in MultiScreen 96-well plates (Merck Millipore) previously coated with 2.5 µg/mL of anti-human IFN-γ monoclonal antibody (mAb; 1-D1K; Mabtech). The T cell lines and APCs were plated at equal number for both stimulated and unstimulated control conditions. […] The spot number was determined by using the ELISPOT Reader System (Autoimmun Diagnostika, Ebinger, Germany). HLA restriction was assessed using monoclonal antibodies (10 μg/ml) specific to HLA-DP (B7/21), HLA-DQ (SPVL3), or HLA-DR (L243).
Based on the T cell epitope prediction software NetMHCpan4.0 ([23]), we selected 63 20-mer peptides that are predicted for their ability to bind promiscuously, with a percentile score below 10%, at least four HLA class II molecules from a selection of 15 preponderant HLA-DR alleles in our panel (as shown in ST1). The predicted peptides spread all along the full-length FVIII sequence and account for more than 50% of its amino acid coverage. A total of 16 healthy donors with unrelated HLA typing (ST2) were used as sources of T cells to identify FVIII-specific CD4 T cell epitopes. Specific T cell lines were generated by in vitro T cell culture using FVIII and KLH. The peptide specificity of the T cell lines raised against FVIII was assessed by two independent IFN-γ ELISPOT using peptide pools and individual peptides. All donors responded to rFVIII with a total of 409 identified rFVIII-specific T cell lines (Figure 4A). The mean of CD4 T cell precursors was 6.5 cells/M (Figure 4B). Each of the 63 FVIII peptides induced a T cell response in at least one of the donors tested, among the 16 healthy donors tested, with 872 peptide-specific T cell lines identified (Figure 4C). The CD4 T cell epitopes identified were ranked based on their donor coverage capacity (Figure 4D) and response intensity (Figure 4E). Furthermore, 18 out of 63 FVIII T cell epitopes were responsible for 50% of the total T cell response and 100% of the donor coverage. These immunoprevalent epitopes are located in the A1, A3, C1, and C2 domains of the FVIII protein (ST3). Furthermore, four independent healthy donors were used as sources of T cells to characterize the HLA restriction and to assess the reactivity of T cell lines generated with the 18 peptides toward rFVIII. T cell lines were amplified in vitro for 28 days through stimulation with the pool of 18 peptides and then tested through IFN-γ ELISPOT. All four healthy donors tested responded to the pool of 18 FVIII peptides selected, with a total of 87 specific T cell lines identified. Moreover, 16 out of 18 FVIII peptides in the pool generated a specific T cell response among the four donors. A total of 14 of the T cell peptides were tested for recognition of rFVIII-loaded on autologous DCs, and it was confirmed that they were part of the naturally processed FVIII peptides. HLA restriction was assessed by introducing anti-HLA-DR, anti-HLA-DP, and anti-HLA-DQ antibodies. None of the peptides tested was HLA-DQ restricted. Eight peptides were exclusively HLA-DR-restricted, one peptide was HLA-DP, and seven were promiscuously presented on both HLA-DR and HLA-DP molecules (ST4). […] Furthermore, the 18 FVIII peptides selected were ulteriorly tested in an in vitro binding assay to six HLA-DRB1 molecules (as described in ST5).
Four healthy donors were used as the source of CD4 T cells, which were amplified in vitro with the pool of 18 FVIII peptides selected for study. In an initial IFN-γ ELISPOT assay, we screened each of the 18 peptides individually to identify any positive T cell responses to both the full-length FVIII protein (protein specificity) as well as the specific peptide inducing the response. […]

Regarding “ATRRYYLGAVELSWDYMQSD [P20-39, 20-mer FVIII peptide, A1 domain]”, the “intensity (%)” value was 4,6%, the “Responding donors (%)” value is on record as 50%, the “HLA restriction (%) DP” value stood at 37% and the “HLA restriction (%) DR” value is listed as 63%. The Protein specificty result is “+”.
“DHLFNIAKPRPPWMGLLGPT [P75-94, 20-mer FVIII peptide, A1 domain]”: the “intensity (%)” value is on record as 1,1%, the “Responding donors (%)” value came to 25%, the “HLA restriction (%) DP” value turned out to be 100% and the Protein specificty entry is reported as “+”.
Turning to “HPQSWVHQIALRMEVLGCEA [P2328-2347, 20-mer FVIII peptide, C2 domain]”, the “intensity (%)” value was 1,1%, the “Responding donors (%)” value is listed as 25%, the “HLA restriction (%) DR” value came out at 100% and the Protein specificty entry is recorded as “+”.
Turning to “INGYIMDTLPGLVMAQDQRI [P1940-1959, 20-mer FVIII peptide, A3 domain]”, the “intensity (%)” value was 1,1%, the “Responding donors (%)” value came out at 25% and the “HLA restriction (%) DR” value is recorded as 100%.
Turning to “KARLHLQGRSNAWRPQVNNP [P2226-2245, 20-mer FVIII peptide, C2 domain]”, the “intensity (%)” value is 12,6%, the “Responding donors (%)” value is on record as 50%, the “HLA restriction (%) DP” value turned out to be 23% and the “HLA restriction (%) DR” value was 77%. In addition, the Protein specificty result was “+”.
As to “KEPFSWIKVDLLAPMIIHGI [P2084-2103, 20-mer FVIII peptide, C1 domain]”, the “intensity (%)” value is 19,5%, the “Responding donors (%)” value stood at 100%, the “HLA restriction (%) DP” value amounted to 47% and the “HLA restriction (%) DR” value was found to be 53%. Also, the Protein specificty result is listed as “+”.
Regarding “KKEEYKMALYNLYPGVFETV [P1986-2005, 20-mer FVIII peptide, A3 domain]”, the “intensity (%)” value is given as 1,1%, the “Responding donors (%)” value was 25%, the “HLA restriction (%) DR” value turned out to be 100% and the Protein specificty entry was “+”.
With “KLARLHYSGSINAWSTKEPF [P2068-2087, 20-mer FVIII peptide, C1 domain]”, the “intensity (%)” value is recorded as 1,1%, the “Responding donors (%)” value is 25% and the “HLA restriction (%) DR” value stood at 100%.
“LGQFLLFCHISSHQHDGMEA [P322-341, 20-mer FVIII peptide, A1 domain]”: the “intensity (%)” value is given as 4,6%, the “Responding donors (%)” value is given as 50%, the “HLA restriction (%) DR” value stood at 100% and the Protein specificty result is given as “+”.
For the sequence “LLTRYLRIHPQSWVHQIALR [P2320-2339, 20-mer FVIII peptide, C2 domain]”, the “intensity (%)” value is on record as 2,3%, the “Responding donors (%)” value turned out to be 25%, the “HLA restriction (%) DP” value is recorded as 25% and the “HLA restriction (%) DR” value is listed as 75%. Moreover, the Protein specificty entry was “+”.
Regarding “LSHVDLVKDLNSGLIGALLV [P178-197, 20-mer FVIII peptide, A1 domain]”, the “intensity (%)” value is 4,6%, the “Responding donors (%)” value is given as 75%, the “HLA restriction (%) DP” value is recorded as 50% and the “HLA restriction (%) DR” value was 50%. Also, the Protein specificty entry is given as “+”.
For the sequence PPIIARYIRLHPTHYSIRST [P2161-2180], the “intensity (%)” value is on record as 9,2%, the “Responding donors (%)” value turned out to be 75%, the “HLA restriction (%) DP” value is reported as 19% and the “HLA restriction (%) DR” value was 81%. For the same sequence, the Protein specificty entry is “+”.
Consider “RHYFIAAVERLWDYGMSSSP [P1715-1734, 20-mer FVIII peptide, A3 domain]”, for which the “intensity (%)” value was 18,4%, the “Responding donors (%)” value came to 75%, the “HLA restriction (%) DR” value turned out to be 100% and the Protein specificty entry is “+”.
With “SLYISQFIIMYSLDGKKWQT [P2114-2133, 20-mer FVIII peptide, C1 domain]”, the “intensity (%)” value is given as 3,4%, the “Responding donors (%)” value stood at 50%, the “HLA restriction (%) DP” value is 33% and the “HLA restriction (%) DR” value is 66%. In addition, the Protein specificty entry was “+”.
In the case of “VHSIFLEGHTFLVRNHRQAS [P285-304, 20-mer FVIII peptide, A1 domain]”, the “intensity (%)” value is 3,4%, the “Responding donors (%)” value was 50%, the “HLA restriction (%) DR” value amounted to 100% and the Protein specificty result is given as “+”.
In the case of “YDTVVITLKNMASHPVSLHA [P100-119, 20-mer FVIII peptide, A1 domain]”, the “intensity (%)” value came out at 8%, the “Responding donors (%)” value turned out to be 50%, the “HLA restriction (%) DR” value turned out to be 100% and the Protein specificty result is “+”.

Values taken from article PMC10951066, “The self-reactive FVIII T cell repertoire in healthy individuals relies on a short set of epitopes and public clonotypes” (Frontiers in Immunology, 2024).
